According to the NIST ThermoML archive (doi:10.1021/je300972a):

Test: xn = mol fraction of the nth substance listed
Details: 101 kPa, Liquid; for viscosity: Falling or rolling sphere viscometry; for mass density: Vibrating tube method

CCCC[n+]1ccc(C)cc1.O=S(=O)([N-]S(=O)(=O)C(F)(F)F)C(F)(F)F + CCCC[n+]1ccccc1.F[B-](F)(F)F
Details | mass density [kg/m3] | viscosity [mPa·s]
293.15 K, x2 = 0 | 1416.6 | 70.6
293.15 K, x2 = 0.0575 | 1409.3 | 75.3
293.15 K, x2 = 0.1136 | 1401.9 | 77.8
293.15 K, x2 = 0.2311 | 1385.1 | 88.7
293.15 K, x2 = 0.3515 | 1366 | 101.1
293.15 K, x2 = 0.4566 | 1347.8 | 115.1
293.15 K, x2 = 0.5692 | 1326.2 | 135.2
293.15 K, x2 = 0.673 | 1304 | 153.4
293.15 K, x2 = 0.7836 | 1277.5 | 171.9
293.15 K, x2 = 0.889 | 1249.1 | 195
293.15 K, x2 = 0.9535 | 1230.2 | 216.1
303.15 K, x2 = 0 | 1407.3 | 45.2
303.15 K, x2 = 0.0575 | 1400.1 | 47.3
303.15 K, x2 = 0.1136 | 1392.8 | 49.3
303.15 K, x2 = 0.2311 | 1376.2 | 55.5
303.15 K, x2 = 0.3515 | 1357.4 | 63.3
303.15 K, x2 = 0.4566 | 1339.4 | 72.7
303.15 K, x2 = 0.5692 | 1318.1 | 81.7
303.15 K, x2 = 0.673 | 1296.1 | 90.6
303.15 K, x2 = 0.7836 | 1270 | 98.9
303.15 K, x2 = 0.889 | 1241.9 | 109.6
303.15 K, x2 = 0.9535 | 1223.2 | 118.8
313.15 K, x2 = 0 | 1398.1 | 30.6
313.15 K, x2 = 0.0575 | 1391 | 31.9
313.15 K, x2 = 0.1136 | 1383.8 | 33
313.15 K, x2 = 0.2311 | 1367.4 | 37
313.15 K, x2 = 0.3515 | 1348.8 | 42.3
313.15 K, x2 = 0.4566 | 1331.1 | 47.2
313.15 K, x2 = 0.5692 | 1310 | 52.1
313.15 K, x2 = 0.673 | 1288.3 | 56.6
313.15 K, x2 = 0.7836 | 1262.5 | 61.3
313.15 K, x2 = 0.889 | 1234.7 | 66.9
313.15 K, x2 = 0.9535 | 1216.2 | 72.5
323.15 K, x2 = 0 | 1388.8 | 21.8
323.15 K, x2 = 0.0575 | 1381.9 | 22.6
323.15 K, x2 = 0.1136 | 1374.7 | 23.5
323.15 K, x2 = 0.2311 | 1358.6 | 26.4
323.15 K, x2 = 0.3515 | 1340.3 | 29.6
323.15 K, x2 = 0.4566 | 1322.8 | 32.4
323.15 K, x2 = 0.5692 | 1302 | 35.4
323.15 K, x2 = 0.673 | 1280.5 | 38.2
323.15 K, x2 = 0.7836 | 1255 | 41
323.15 K, x2 = 0.889 | 1227.6 | 44.1
323.15 K, x2 = 0.9535 | 1209.3 | 46.5
333.15 K, x2 = 0 | 1379.7 | 16.1
333.15 K, x2 = 0.0575 | 1372.8 | 16.8
333.15 K, x2 = 0.1136 | 1365.8 | 17.5
333.15 K, x2 = 0.2311 | 1349.8 | 19.5
333.15 K, x2 = 0.3515 | 1331.8 | 21.6
333.15 K, x2 = 0.4566 | 1314.5 | 23.3
333.15 K, x2 = 0.5692 | 1294 | 25.2
333.15 K, x2 = 0.673 | 1272.8 | 27
333.15 K, x2 = 0.7836 | 1247.6 | 28.9
333.15 K, x2 = 0.889 | 1220.5 | 30.8
333.15 K, x2 = 0.9535 | 1202.4 | 32.2
343.15 K, x2 = 0 | 1370.5 | 12.3
343.15 K, x2 = 0.0575 | 1363.8 | 12.8
343.15 K, x2 = 0.1136 | 1356.9 | 13.3
343.15 K, x2 = 0.2311 | 1341.1 | 14.6
343.15 K, x2 = 0.3515 | 1323.3 | 16
343.15 K, x2 = 0.4566 | 1306.3 | 17.2
343.15 K, x2 = 0.5692 | 1286 | 18.5
343.15 K, x2 = 0.673 | 1265.1 | 19.7
343.15 K, x2 = 0.7836 | 1240.2 | 20.9
343.15 K, x2 = 0.889 | 1213.4 | 22.1
343.15 K, x2 = 0.9535 | 1195.6 | 23
353.15 K, x2 = 0 | 1361.5 | 9.8
353.15 K, x2 = 0.0575 | 1354.9 | 10.1
353.15 K, x2 = 0.1136 | 1348 | 10.5
353.15 K, x2 = 0.2311 | 1332.5 | 11.4
353.15 K, x2 = 0.3515 | 1314.9 | 12.4
353.15 K, x2 = 0.4566 | 1298.1 | 13.3
353.15 K, x2 = 0.5692 | 1278.1 | 14.1
353.15 K, x2 = 0.673 | 1257.5 | 14.9
353.15 K, x2 = 0.7836 | 1232.8 | 15.8
353.15 K, x2 = 0.889 | 1206.3 | 16.6
353.15 K, x2 = 0.9535 | 1188.8 | 17.2
